This note sets out measurements from patent US8129389B2, “Substituted oxindole derivatives, medicaments containing the latter and use thereof” (Abbott GmbH & Co. KG, priority 2005, dated 2012).

The assay concerns the target T1, human V1b receptors (Homo sapiens, UniProt P47901).
T1 construct: expressed in transfected cells
T1 sequence (P47901 1-424): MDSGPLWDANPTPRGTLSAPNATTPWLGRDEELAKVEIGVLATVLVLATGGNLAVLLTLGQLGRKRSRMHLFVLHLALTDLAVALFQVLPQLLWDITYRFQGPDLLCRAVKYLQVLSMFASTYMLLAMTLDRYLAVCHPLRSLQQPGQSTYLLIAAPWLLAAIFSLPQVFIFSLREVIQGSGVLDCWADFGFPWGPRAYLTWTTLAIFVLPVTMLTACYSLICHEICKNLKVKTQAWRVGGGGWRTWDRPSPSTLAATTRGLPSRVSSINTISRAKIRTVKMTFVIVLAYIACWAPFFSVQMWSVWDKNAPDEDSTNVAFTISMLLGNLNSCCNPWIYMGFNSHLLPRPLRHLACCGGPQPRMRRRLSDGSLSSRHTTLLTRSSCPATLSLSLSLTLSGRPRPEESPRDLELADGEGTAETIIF
Nature of the assay: Vasopressin V1b receptor binding assay. On the procedure: Vasopressin V1b Receptor Binding Assay:
These DMSO solutions were diluted 1:10 with assay buffer. The substance concentration was further diluted 1:10 in the assay mixture.
The nonspecific binding was determined with 10^−6 M AVP. Determinations in triplicate were carried out.
The affinities for the human vasopressin V1b receptor were measured, and affinity constants determined, in the above assay for the inventive examples.
The affinities of the compounds (I) of the invention for the human vasopressin V1b receptor were measured in accordance with the above assays, and the affinity constants (Ki) were determined. Table 1 below details the V1b receptor affinity of selected compounds (+++ means <10 nM and ++ means 10-100 nM).

Where [1] appears, read: Table 1, human vasopressin V1b receptor affinity, read-out: V1b Ki.
Where [2] appears, read: membranes from CHO-K1 cells, 3H-AVP displacement, read-out: measured Ki values, affinities for the vasopressin V1b receptor.

pKi: −log10 of the molar value. Where two headings read alike, the source gives them in different places. A value given as a limit tells only on which side of the number the result lay.

On to `CCOc1ccccc1C1(NC(=O)N2CCN(c3ncccn3)CC2)C(=O)N(S(=O)(=O)c2ccc(OC)cc2OC)c2ccc(C#N)cc21` (stereo not drawn) [Example 34, 4-(Pyrimidin-2-yl)piperazine-1-[1-(2,4-dimethoxybenzenesulfonyl)-5-cyano-2-oxo-3-(2-ethoxyphenyl)-2,3-dihydro-1H-indol-3-yl]carboxamide], for which the pKi (in general, the Ki on a negative log10 scale, so that one unit is a factor of ten) reads like this: under setting [1], above 8.00; under setting [2], above 7.00.
The corresponding values for `CCOc1ccccc1C1(NC(=O)N2CCN(c3ncccc3C)CC2)C(=O)N(S(=O)(=O)c2ccc(OC)cc2OC)c2ccc(C#N)cc21` (stereo not drawn) [Example 32, 4-(3-Methylpyridin-2-yl)piperazine-1-[1-(2,4-dimethoxybenzenesulfonyl)-5-cyano-2-oxo-3-(2-ethoxyphenyl)-2,3-dihydro-1H-indol-3-yl]carboxamide] are 7.00 to 8.00 and above 7.00.
In the same order, the values of `CCOc1ccccc1C1(NC(=O)N2CCN(c3ccncc3)CC2)C(=O)N(S(=O)(=O)c2ccc(C#N)cc2)c2ccc(C#N)cc21` (stereo not drawn) [Example 14, 4-(Pyridin-4-yl)piperazine-1-[1-(4-cyanobenzenesulfonyl)-5-cyano-2-oxo-3-(2-ethoxyphenyl)-2,3-dihydro-1H-indol-3-yl]carboxamide] are above 8.00 and above 7.00.
With `CCOc1ccccc1C1(NC(=O)N2CCN(c3nccs3)CC2)C(=O)N(S(=O)(=O)c2ccc(OC)cc2OC)c2ccc(C#N)cc21` (stereo not drawn) [Example 31, 4-(Thiazol-2-yl)piperazine-1-[1-(2,4-dimethoxybenzenesulfonyl)-5-cyano-2-oxo-3-(2-ethoxyphenyl)-2,3-dihydro-1H-indol-3-yl]carboxamide], the pKi is above 8.00 under setting [1] and above 7.00 under setting [2].
The corresponding values for `CCOc1ccccc1C1(NC(=O)N2CCN(c3ccncc3)CC2)C(=O)N(S(=O)(=O)c2ccc(C)cc2OC)c2ccc(C#N)cc21` (stereo not drawn) [Example 15, 4-(Pyridin-4-yl)piperazine-1-[1-(2-methoxy-4-methylbenzenesulfonyl)-5-cyano-2-oxo-3-(2-ethoxyphenyl)-2,3-dihydro-1H-indol-3-yl]carboxamide] are above 8.00 and above 7.00.
The corresponding values for `CCOc1ccccc1C1(OC(=O)N2CCN(c3ccncc3)CC2)C(=O)N(S(=O)(=O)c2ccccc2)c2ccc(C#N)cc21` (stereo not drawn) [Example 9, 5-Cyano-1-benzenesulfonyl-3-(2-ethoxyphenyl)-2-oxo-2,3-dihydro-1H-indol-3-yl 4-(pyridin-4-yl)-piperazine-1-carboxylate] are 7.00 to 8.00 and above 7.00.
With `CCOc1ccccc1C1(NC(=O)N2CCN(c3ccc(C#N)cn3)CC2)C(=O)N(S(=O)(=O)c2ccccc2F)c2ccc(C#N)cc21` (stereo not drawn) [Example 49, 4-(5-Cyanopyridin-2-yl)piperazin-1-[1-(2-fluorobenzenesulfonyl)-5-cyano-2-oxo-3-(2-ethoxyphenyl)-2,3-dihydro-1H-indol-3-yl]carboxamide], the pKi under setting [2] was above 7.00.
Take `CCOc1ccccc1C1(NC(=O)N2CCN(c3ccc(C#N)cn3)CC2)C(=O)N(S(=O)(=O)c2ccccc2)c2ccc(C#N)cc21` (stereo not drawn) [Example 48, 4-(5-Cyanopyridin-2-yl)piperazine-1-[1-benzenesulfonyl-5-cyano-2-oxo-3-(2-ethoxyphenyl)-2,3-dihydro-1H-indol-3-yl]carboxamide]: the pKi is, setting by setting: under setting [1], 7.00 to 8.00; under setting [2], above 7.00.
As to `CCOc1ccccc1C1(NC(=O)N2CCN(c3ccncc3)CC2)C(=O)N(S(=O)(=O)c2ccccc2F)c2ccc(C#N)cc21` (stereo not drawn) [Example 12, 4-(Pyridin-4-yl)piperazine-1-[1-(2-fluorobenzenesulfonyl)-5-cyano-2-oxo-3-(2-ethoxyphenyl)-2,3-dihydro-1H-indol-3-yl]carboxamide], the pKi runs as follows: under setting [1], above 8.00; under setting [2], above 7.00.
`CCOc1ccccc1C1(OC(=O)N2CCN(c3nccs3)CC2)C(=O)N(S(=O)(=O)c2ccc(C#N)cc2)c2ccc(C#N)cc21` (stereo not drawn) [Example 42, 1-(4-Cyanobenzenesulfonyl)-5-cyano-2-oxo-3-(2-ethoxyphenyl)-2,3-dihydro-1H-indol-3-yl 4-(thiazol-2-yl)piperazine-1-carboxylate]: the pKi reads like this: under setting [1], 7.00 to 8.00; under setting [2], above 7.00.
In the same order, the values of `CCOc1ccccc1C1(NC(=O)N2CCN(c3ccc(C#N)cn3)CC2)C(=O)N(S(=O)(=O)c2ccc(Cl)cc2)c2ccc(C#N)cc21` (stereo not drawn) [Example 46, 4-(5-Cyanopyridin-2-yl)piperazine-1-[1-(4-chlorobenzenesulfonyl)-5-cyano-2-oxo-3-(2-ethoxyphenyl)-2,3-dihydro-1H-indol-3-yl]carboxamide] are 7.00 to 8.00 and above 7.00.
In the same order, the values of `CCOc1ccccc1C1(OC(=O)N2CCN(c3ccccn3)CC2)C(=O)N(S(=O)(=O)c2ccc(OC)cc2OC)c2ccc(C#N)cc21` (stereo not drawn) [Example 25, 1-(2,4-Dimethoxybenzenesulfonyl)-5-cyano-2-oxo-3-(2-ethoxyphenyl)-2,3-dihydro-1H-indol-3-yl 4-(pyridin-2-yl)piperazine-1-carboxylate] are 7.00 to 8.00 and above 7.00.
Consider `CCOc1ccccc1C1(OC(=O)N2CCN(c3ccncc3)CC2)C(=O)N(S(=O)(=O)c2ccc(F)cc2F)c2ccc(C#N)cc21` (stereo not drawn) [Example 7, 5-Cyano-1-(2,4-difluorobenzenesulfonyl)-3-(2-ethoxyphenyl)-2-oxo-2,3-dihydro-1H-indol-3-yl 4-(pyridin-4-yl)piperazine-1-carboxylate], for which the pKi runs as follows: under setting [1], 7.00 to 8.00; under setting [2], above 7.00.
The corresponding values for `CCOc1ccccc1C1(OC(=O)N2CCN(c3ccncc3)CC2)C(=O)N(S(=O)(=O)c2ccccc2OC)c2ccc(C#N)cc21` (stereo not drawn) [Example 2, 5-Cyano-1-(2-methoxybenzenesulfonyl)-3-(2-ethoxyphenyl)-2-oxo-2,3-dihydro-1H-indol-3-yl 4-(pyridin-4-yl)piperazine-1-carboxylate] are 7.00 to 8.00 and above 7.00.
The corresponding values for `CCOc1ccccc1C1(OC(=O)N2CCN(c3ncccn3)CC2)C(=O)N(S(=O)(=O)c2ccc(OC)cc2OC)c2ccc(C#N)cc21` (stereo not drawn) [Example 27, 1-(2,4-Dimethoxybenzenesulfonyl)-5-cyano-2-oxo-3-(2-ethoxyphenyl)-2,3-dihydro-1H-indol-3-yl 4-(pyrimidin-2-yl)piperazin-1-carboxylate] are 7.00 to 8.00 and above 7.00.
The corresponding values for `CCOc1ccccc1C1(NC(=O)N2CCN(c3cnccn3)CC2)C(=O)N(S(=O)(=O)c2ccc(OC)cc2OC)c2ccc(C#N)cc21` (stereo not drawn) [Example 35, 4-(Pyrazin-2-yl)piperazine-1-[1-(2,4-dimethoxybenzenesulfonyl)-5-cyano-2-oxo-3-(2-ethoxyphenyl)-2,3-dihydro-1H-indol-3-yl]carboxamide] are 7.00 to 8.00 and above 7.00.
As to `CCOc1ccccc1C1(NC(=O)N2CCN(c3ccc(C#N)cn3)CC2)C(=O)N(S(=O)(=O)c2ccc([N+](=O)[O-])cc2)c2ccc(C#N)cc21` (stereo not drawn) [Example 43, 4-(5-Cyanopyridin-2-yl)piperazine-1-[1-(4-nitrobenzenesulfonyl)-5-cyano-2-oxo-3-(2-ethoxyphenyl)-2,3-dihydro-1H-indol-3-yl]carboxamide], the pKi was 7.00 to 8.00 under setting [1] and above 7.00 under setting [2].
